Results on nine compounds are retold here after US8188101B2 (AstraZeneca AB, priority 2008, dated 2012).

Each structure is given as a SMILES string.

In this assay the test system is Aβ42 release. Kind of assay: Aβ release in cells stably expressing APPswe, Meso Scale Discovery electrochemiluminescence assay. To be noted: Homo sapiens, SH-SY5Y, HEK or SH-SY5Y cells stably expressing APPswe, 4-6 hours incubation with test compound. It counts as cell-based, Human. Put shortly:
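HEK or SH-SY5Y cells stably expressing APPswe, plated 15-24 h, then exposed to compound (diluted ×200 into fresh medium) for 4-6 h at 37 °C. Secreted Aβ42 in medium quantified by Meso Scale Discovery electrochemiluminescence with specific antibodies; cytotoxicity checked by cellular ATP content.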
As a reminder, the IC50 is the midpoint of a concentration-inhibition curve. With `COC(c1ccccc1)c1nc(Nc2ccc(-n3ccnc3C)cc2)nc2c1CS(=O)(=O)CC2` (stereo not drawn) [Example 66, 4-[Methoxy(phenyl)methyl]-N-[4-(2-methyl-1H-imidazol-1-yl)phenyl]-7,8-dihydro-5H-thiopyrano[4,3-d]pyrimidin-2-amine 6,6-dioxide], the IC50 is 1260 nM.
On to `Cc1nccn1-c1ccc(Nc2nc3c(c(NC[C@@H]4CCCO4)n2)CN(C)CC3)cc1` [Example 73, (S)-6-Methyl-N2-(4-(2-methyl-1H-imidazol-1-yl)phenyl)-N4-((tetrahydrofuran-2-yl)methyl)-5,6,7,8-tetrahydropyrido[4,3-d]pyrimidine-2,4-diamine], for which the IC50 is 794 nM.
As to `CC(=O)N1CCc2nc(Nc3ccc(-c4cnco4)cc3)nc(N(C)Cc3cccnc3)c2C1` [Example 36, 1-(4-(Methyl(pyridin-3-ylmethyl)amino)-2-(4-(oxazol-5-yl)phenylamino)-7,8-dihydropyrido[4,3-d]pyrimidin-6(5H)-yl)ethanone], the IC50 is 5010 nM.
For `COc1cc(Nc2nc3c(c(C(OC)c4ccccc4)n2)COCC3)ccc1-n1cnc(C)c1` (stereo not drawn) [Example 101, 4-(Methoxy(phenyl)methyl)-N-(3-methoxy-4-(4-methyl-1H-imidazol-1-yl)phenyl)-7,8-dihydro-5H-pyrano[4,3-d]pyrimidin-2-amine], the IC50 was 50.1 nM.
Consider `CC(=O)N1CCc2nc(Nc3ccc(-c4cnco4)cc3)nc(N(CCO)c3ccccc3)c2C1` [Example 28, 1-(4-((2-Hydroxyethyl)(phenyl)amino)-2-(4-(oxazol-5-yl)phenylamino)-7,8-dihydropyrido[4,3-d]pyrimidin-6(5H)-yl)ethanone], for which the IC50 is 794 nM.
The same measure for `Cc1cc(C(C)c2ccccc2)nc(Nc2ccc(-n3ccnc3C)cc2)n1` (stereo not drawn) [Example 87, 4-Methyl-N-(4-(2-methyl-1H-imidazol-1-yl)phenyl)-6-(1-phenylethyl)pyrimidin-2-amine]: 316 nM.
As for `CN1CCc2nc(Nc3ccc(-c4cnco4)cc3)nc(Nc3ccccc3)c2C1` [Example 4, 6-Methyl-N2-(4-(oxazol-5-yl)phenyl)-N4-phenyl-5,6,7,8-tetrahydropyrido[4,3-d]pyrimidine-2,4-diamine], the IC50 was 316 nM.
The same measure for `COc1cc(Nc2nc3c(c(CCC4CCCO4)n2)COCC3)ccc1-n1cnc(C)c1` (stereo not drawn) [Example 102, N-(3-Methoxy-4-(4-methyl-1H-imidazol-1-yl)phenyl)-4-(2-(tetrahydrofuran-2-yl)ethyl)-7,8-dihydro-5H-pyrano[4,3-d]pyrimidin-2-amine]: 126 nM; for `CN1CCc2nc(Nc3ccc(-c4cnco4)cc3)nc(NCC3CCOCC3)c2C1` [Example 85, 6-Methyl-N2-(4-(oxazol-5-yl)phenyl)-N4-((tetrahydro-2H-pyran-4-yl)methyl)-5,6,7,8-tetrahydropyrido[4,3-d]pyrimidine-2,4-diamine]: 251 nM.
